Entries after “also recorded” stand apart in the source; their conditions may differ.

This note sets out measurements from US20170335402A1, “DOT1L INHIBITORS AND USES THEREOF” (Baylor College of Medicine, priority 2014, published 2017).

For one test, the system named is MEIS1 and HOXB3. The test is described as follows: qRT-PCR of MEIS1 and HOXB3 in OCI AML3 xenograft tumors. Format: in vivo, nude rat. The following applies: 21 days. Here is the method: (§1) In vivo studies were conducted. Human acute myeloid leukemia cells OCI-AML3 were implanted subcutaneously into the right flank of female athymic nude rats (Hsd:RH-Foxn1rnu, Harlan Laboratories, Inc.). EPZ-5676 was delivered by continuous IV infusion via a catheter surgically implanted in the femoral vein of each rat. Animals were separated into either an efficacy or PK/PD cohort. Both cohorts were dosed by continuous IV infusion with 35 or 70 mg/kg/day. A control group received continuous IV infusion of the vehicle, 5% hydroxypropyl-β-cyclodextrin (HPBCD) in saline. Efficacy was determined after 21 days of drug treatment followed by a 7 day drug holiday. Animals assessed for PK/PD were dosed for 14 days and euthanized following the completion of infusion. All rats were weighed and tumors calipered twice weekly until the end of study. At the completion of the study animals were euthanized by terminal cardiac puncture under isoflurane anesthesia. Euthanized rats were sampled for tumor tissue. Tumors were collected in an RNase-free environment, bisected, snap frozen in liquid nitrogen, pulverized and finally stored at (−80° C.).
For the isolation of RNA, 10 mg of tumor powder was lysed in 600 μL RLT Lysis Buffer (Qiagen) and homogenized with a Qiashredder column (Qiagen, 79656) following the manufacturer's protocol. […] MEIS1 and HOXB3 mRNA levels were assessed and normalized to GAPDH by qRT-PCR.

For test [1], the system named is OCI AML3 subcutaneous tumors. The test is described as follows: Nude rat OCI-AML3 xenograft study, tumor volume. It is filed as in vivo. The note with it: 21 days. Here is the method: as §1
A further test relates to H3K79me2. Put plainly: ELISA of H3K79me2 in OCI AML3 xenograft tumors. Format: in vivo, nude rat. Here is the method:
as §1, with “Tumors were collected in an RNase-free environment, bisected, snap frozen in liquid nitrogen, pulverized and finally stored at (−80° C.).” left out
For isolation of histones from bone marrow, cells were lysed in 250 μL nuclear extraction buffer (10 mM Tris-HCl, 10 mM MgCl2, 25 mM KCl, 1% Triton X-100, 8.6% Sucrose, plus a Roche protease inhibitor tablet 1836145). […] Histones were quantified using the BCA protein assay (Pierce, 23225). […]

In test [2] the test system is H3K79me2 in OCI AML2 cells. The test is described as follows: Immunoblot analysis of cellular H3K79 methylation. It is filed as cell-based, human.
Test [3] deals with OCI AML2 cells. The test is described as follows: Cell differentiation analysis, CD14 flow cytometry. Format: cell-based, human. The note with it: dose dependent. Here is the method:
(§2) Cell differentiation analysis was performed by staining with fluorescently labeled marker for cell differentiation, CD14 followed by flow cytometry. Propidium iodide was added prior to flow cytometry analysis to exclude dead cells.
(§3) Cells were harvested at each re-plating of the cell proliferation assay described above then split for simultaneous analysis of apoptosis, cell cycle, and differentiation. Apoptosis was determined by Annexin V binding (AVB) flow cytometry assay. The harvested cells were re-suspended in 1×AVB buffer, stained with APC-conjugated Annexin V (BD), then analyzed by flow cytometry. For cell cycle analysis, cells were pelleted, washed in PBS with 0.5% bovine serum albumin, then fixed in 70% ice-cold methanol. The fixed cells were then incubated in PBS with 100 μg/mL RNAse (Invitrogen) for 15 minutes in a 37° C. water bath. Propidium iodide (PI) in PBS at a final concentration of 25 μg/mL was then added and the cells were analyzed by flow cytometry. For differentiation, cells were pelleted, and stained with APC-conjugated CD14 then washed and re-suspended in media containing PI to exclude dead cells. All analyses were performed using an LSR II flow cytometer (BD biosciences) and the data were analyzed using FlowJo (TreeStar, V8.8.7).

For test [4], the system named is OCI AML3 cells. The test is described as follows: Cell differentiation analysis, CD14 flow cytometry. The following applies: dose dependent. It is filed as cell-based, human. How it is done:
as §2, §3

Test [5] has as its system OCI AML2 cells. Put plainly: Annexin V binding (AVB) flow cytometry apoptosis assay. It is filed as cell-based, human. The following applies: increasing concentrations. Here is the method:
(§4) For the Annexin V apoptosis assay, 1×10^6 SYC-522-, EPZ004777- or DMSO-treated cells were washed in PBS, resuspended in Ca/HEPES buffer (10 mM HEPES, pH7.4; 140 mM NaCl; 2.5 mM CaCl2) and incubated with Annexin V-APC (BD Pharmingen, San Jose, Calif.) for 30 min then analyzed by flow cytometry.
as §3

A further test has as its system MV411 cells. The test is described as above. It is filed as cell-based, human. The following applies: MV4-11; dose-dependent, FIG. 4. How it is done:
as §4, §3

The subject of test [6] is OCI AML3 cells. The test is described as above. Format: cell-based, human. The following applies: increasing concentrations. How it is done:
as §4, §3

The test system of test [7] is H3K79me2 in OCI AML3 cells. Put plainly: Immunoblot analysis of cellular H3K79 methylation. It is filed as cell-based, human.
For test [8], the system named is OCI AML2 cells. Put plainly: Cell proliferation and viability assay (trypan blue exclusion). Format: cell-based, human. The following applies: OCI AML2; escalating doses, 10-14 days. Here is the method: (§5) Patient AML cell lines were plated in media and treated with the DOT1L inhibitors SYC-522, EPZ004777 or DMSO control was added at the indicated concentrations. Cells counted, washed and re-plated in fresh compound at equal densities every 3-4 days for 12 days. Cell growth and viability were followed by serial cell counts and trypan blue exclusion staining.
(§6) Exponentially growing cells were plated, in triplicate, in 24-well plates at a density of 2×10^5/mL in a final volume of 1 mL. For dose dependent assays, cells were incubated in increasing concentrations of SYC522 up to 10 μM or EPZ004777 up to 24 μM or DMSO control. For time-dependent assays, cells were incubated in 3 μM EPZ004777 or DMSO control. Every 2-3 days media and compound was replaced and cells were split back to a density of 2×10^5/mL. At each re-plating viable cells number was determined by trypan blue exclusion. Total cell number is expressed as split-adjusted viable cells per mL.

The test system of test [9] is OCI AML3 cells. The description is as above. It is filed as cell-based, human. The following applies: OCI AML3; escalating doses, 10-14 days. Here is the method: as §5, §6
The subject of another test is MV4-11 cells. The test is described as above. It is filed as cell-based, human. The following applies: MV4-11 (MLL-rearranged); dose-dependent, FIG. 4. Here is the method:
as §5, §6

The test system of the next test is DNMT3A mutant cells. The test is described as follows: HOX gene expression in DNMT3A mutant cells (FIG. 10). Format: cell-based, human. The note with it: FIG. 10, day 6 and day 10 of treatment. How it is done: RNA was extracted from OCI AML2 and OCI AML3 cells treated with 3 μM EPZ004777 or DMSO control using RNeasy RNA isolation kit (Qiagen) per manufacturer's protocol. RNA was quantified using Nanodrop instrument and 300-1000 ng (equal quantities for EPZ004777 treated and DMSO controls) of RNA were reverse transcribed using the SuperScript® III First-Strand Synthesis System (Invitrogen). Reverse transcription quantitative PCR was then performed in triplicate using predesigned TaqMan primer and probe sets for HOXA9 (Hs00365956_m1), MEIS1 (Hs01017441_m1), HOXB8 (Hs00256885_m1), HOXB3 (Hs01587922_m1), and GAPDH (Hs02758991_ml) (FAM-MGB; Applied Biosystems) for 30 cycles using an AbiPrism 7900HT (Applied Biosystems). Target gene numbers were normalized to the ribosomal RNA 18s (VIC-MGB; Applied Biosystems) and fold-change determined by the 2^−ΔΔCT equation.

The mark [10] stands for this setting: 35 mg/kg/day continuous IV infusion.
The mark [11] stands for this setting: 70 mg/kg/day continuous IV infusion.

Regarding `CC(C)N(C[C@H]1O[C@@H](n2cnc3c(N)ncnc32)[C@H](O)[C@@H]1O)[C@H]1C[C@@H](CCc2nc3cc(C(C)(C)C)ccc3[nH]2)C1` [EPZ-5676], the “expression of oncogenic genes including MEIS1 and HOXB3 in tumors” value in the test on MEIS1 and HOXB3 (setting [10]) is listed as “repression of oncogenic genes”; in the test on MEIS1 and HOXB3 (setting [11]), “repression of oncogenic genes”. Moreover, the “tumor growth (tumor volume)” value was “inhibited in a dose dependent fashion” in test [1] (setting [10]) and “inhibited in a dose dependent fashion reaching statistical significance” in test [1] (setting [11]). In addition, the H3K79me2 level entry in the test with H3K79me2 (setting [10]) and in the test on H3K79me2 (setting [11]) was “significant reduction of H3K79me2” throughout.
As for `CC(C)N(CCCNC(=O)Nc1ccc(C(C)(C)C)cc1)CC1OC(n2cnc3c(N)ncnc32)C(O)C1O` (centres unmarked) [SYC-522], the “cellular H3K79 methylation” value is “inhibit H3K79 methylation in a time-dependent manner; also recorded: inhibited in a dose- and time-dependent fashion” in test [2]; “inhibit H3K79 methylation in a time-dependent manner; also recorded: inhibited in a dose- and time-dependent fashion” in test [7]. The “terminal differentiation (CD14 staining)” value with OCI AML2 cells [3] and in the test on OCI AML3 cells [4] was “terminal differentiation” each time. In addition, the “induction of apoptosis (Annexin V binding)” value with OCI AML2 cells [5] and in the test on OCI AML3 cells [6] was “induction of apoptosis” in each case. In addition, in the test on MV411 cells, the induction of apoptosis result is on record as “induction of apoptosis”. Further, the “cell growth / proliferation” value in the test on OCI AML2 cells [8] and in the test with OCI AML3 cells [9] was “decreased proliferation; also recorded: inhibited growth in a dose-dependent fashion” throughout. In addition, the cell proliferation entry in the test with MV4-11 cells is listed as “reduction of cell proliferation”. For the same compound, the “oncogenic HOX gene expression” value in the test with DNMT3A mutant cells is “repressed in a time-dependent fashion”.
